Tested on: UVB-irradiated human dermal fibroblasts (HDFs)
Assay: UVB-induced senescence assay: SA-β-Gal staining
Type: cell-based
Conditions: UVB-irradiated HDF
Experimental: In the second approach, we established a method for inducing senescence in these cells with 2 cycles of UVB irradiation 72h apart (Figure 2A). The use of UVA to induce senescence was discarded due to its considerably longer time requirement, being unsuitable to screen 30 compounds within a reasonable period. Cells were treated with these compounds throughout the duration of the assay and cellular senescence was monitored with two markers: accumulation of SA-β-galactosidase (SA-β-Gal) activity, and the decrease in expression of HAS2 (hyaluronic acid synthase 2), a previously reported marker of skin senescence.
Figure 2 (A) Schematic representation of the protocol for senescence induction using UVB irradiation. Cells were treated -/+ the compounds from day 1 to 7 after seeding, irradiated with UVB on days 2 and 5 and harvested for analysis on day 7. […] (C) Phase-contrast (left column) and bright field (right column) microscope images of SA-β-Gal staining showing non-irradiated cells, UVB-irradiated cells non-treated and treated with Gallic acid or Shikimic acid at the indicated concentrations. (D) Percentage of SA-β-Gal positive cells and (E) Relative HAS2 mRNA levels in non-irradiated cells, UVB-irradiated cells and UVB-irradiated cells treated with Gallic acid or Shikimic acid at the indicated concentrations. Student T-test, *p<0.05, **p<0.01, ***p<0.001.
The protocol for senescence induction using UVB irradiation is described in the Supplementary Methods. SA-β-Gal staining, WST-1, sulforhodamine B (SRB) and trypan blue assays were performed as previously described. For the siRNA experiments, the protocol for senescence induction using UVB irradiation was the same as in the Supplementary Methods. Specific siRNA (Horizon discovery, UK) for SIRT1, SIRT2, SIRT6, BiP or scramble siRNA were incubated for 6 hours before each irradiation step.
Senescence induction by UVB irradiation For the non-irradiation control conditions, HDF were […]
After 24h, culture medium was removed and well plates. After 24h, culture medium was removed replaced by fresh cell culture medium containing the and replaced with fresh cell culture medium containing compounds at different concentrations. After 24h, the compounds at different concentrations. […]
cell culture medium was removed, and cells were cells/plate in fresh cell culture medium containing the irradiated at 25 mJ/cm2 of UVB light (312 nm) in a Bio- compound in 6-well plates. After 3 days, cells were […]
amount of PBS. PBS was then removed and fresh cell fresh cell culture medium containing the compound in culture medium with the compound was added to each 6-well plates. After 2 days, cells were processed well. After 3 days, cells were irradiated again under the according to the qPCR, β-Gal staining, apoptosis, cell same conditions. After 2 days, cells were processed cycle or immunofluorescence protocols. according to the qPCR, β-Gal staining, apoptosis, cell cycle or immunofluorescence protocols.

SMILES: O=C(O)C1=C[C@@H](O)[C@@H](O)[C@H](O)C1 [Shikimic acid]
- SA-β-Gal accumulation/staining: significant decrease in SA-β-Gal accumulation
- prevention of UV-induced cellular senescence (SA-β-Gal and HAS2 markers): prevented the development of senescence

Source: article PMC8148468, “Shikimic acid protects skin cells from UV-induced senescence through activation of the NAD+-dependent deacetylase SIRT1” (Aging (Albany NY), 2021)
